Data published in patent US20090149482A1, “STEREOCHEMICALLY DEFINED DIPEPTIDE ESTERS OF ANTIVIRAL AGENTS FOR ENHANCED OCULAR TREATMENT” (priority 2001, published 2009).
Values joined by “and” are separate entries in the source; they are usually repeats but may differ in a detail not shown here. Identical values can stand only once. Like-named read-outs stand apart in the source and are kept apart here.

Tests used:
[1] = for first order hydrolytic rate constant k: 37° C.
[2] = system: rabbit corneal cell line (SIRC); conditions: SIRC cells
[3] = system: oligopeptide transporter on the rabbit cornea
[4] = system: Caco-2 cell suspension; conditions: Caco-2, pH 7.4
[5] = system: HSV-2; assay: In vitro antiviral screening, CPE inhibition in HFF cells; type: cell-based, herpes simplex virus 2; conditions: for EC50: HSV-2, CPE Inhibition
[6] = target: T1, hPEPT1 (Homo sapiens, UniProt P46059); assay: [3H] Glycylsarcosine uptake and its inhibition in Caco-2 cells (affinity towards peptide transporter); type: cell-based
T1 construct: endogenous in cells; host or cells: Caco-2 (human colon carcinoma, ATCC)
T1 sequence (P46059 1-708): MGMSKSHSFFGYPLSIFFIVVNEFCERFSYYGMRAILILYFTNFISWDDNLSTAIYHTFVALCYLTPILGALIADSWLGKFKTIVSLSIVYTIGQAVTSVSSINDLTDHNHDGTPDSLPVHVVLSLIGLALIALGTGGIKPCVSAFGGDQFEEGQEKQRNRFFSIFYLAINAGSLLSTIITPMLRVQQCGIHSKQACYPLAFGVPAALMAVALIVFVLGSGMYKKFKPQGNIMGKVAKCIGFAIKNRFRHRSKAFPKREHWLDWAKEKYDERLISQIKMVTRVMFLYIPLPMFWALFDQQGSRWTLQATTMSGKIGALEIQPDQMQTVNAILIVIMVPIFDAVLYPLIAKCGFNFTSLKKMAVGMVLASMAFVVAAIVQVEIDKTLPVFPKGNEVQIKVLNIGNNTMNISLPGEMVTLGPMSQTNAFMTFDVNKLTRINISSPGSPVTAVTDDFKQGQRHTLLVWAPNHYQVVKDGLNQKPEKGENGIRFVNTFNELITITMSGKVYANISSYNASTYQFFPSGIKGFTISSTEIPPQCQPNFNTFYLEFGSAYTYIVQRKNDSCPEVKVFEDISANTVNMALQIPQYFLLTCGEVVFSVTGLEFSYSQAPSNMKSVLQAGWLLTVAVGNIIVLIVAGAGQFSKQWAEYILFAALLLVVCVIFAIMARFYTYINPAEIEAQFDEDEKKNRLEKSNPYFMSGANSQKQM

[7] = system: HSV-1; assay: In vitro antiviral screening, CPE inhibition in HFF cells; type: cell-based, herpes simplex virus 1
[8] = system: VZV; assay: as above; type: cell-based, varicella zoster virus; conditions: VZV, CPE Inhibition
[9] = pH 1.2, * = no measurable degradation during 7 day experiment
[10] = pH 2.6, * = no measurable degradation during 7 day experiment

## CC(C)[C@H](N)C(=O)OCCOCn1cnc2c(=O)[nH]c(N)nc21 [Val-ACV, L-Valine-acyclovir]
[1]; [9]
  first order hydrolytic rate constant k: 1.22 k × 10^3 min^−1
[1]; [10]
  first order hydrolytic rate constant k: 0.41 k × 10^3 min^−1
[1]; pH 4.2, * = no measurable degradation during 7 day experiment
  first order hydrolytic rate constant k: 0.008 k × 10^3 min^−1
[1]; pH 5.6, * = no measurable degradation during 7 day experiment
  first order hydrolytic rate constant k: 0.16 k × 10^3 min^−1
[1]; pH 7.4
  first order hydrolytic rate constant k: 0.67 k × 10^3 min^−1
[1]; pH 9.0
  first order hydrolytic rate constant k: 1.63 k × 10^3 min^−1
[2]; 5 mM
  % viable cells: 89.3±5.1%
[3]
  Papp (% Control) of [3H] Val-ACV: 20.1 (±6.7) % Control
[4]; human
  10^2 × kobs: 0.56 ± 0.038 min^−1mg^−1 protein
[5]
  SI (Selectivity Index) = CC50/EC50: SI > 35.7
[5]; Human alphaherpesvirus 2, HFF
  EC50: 7.77 µM
[6]
  Ki: 1410 ± 560 µM
  Vmax of Gly-Sar uptake in presence of the drug: 0.081 ± 0.09 µmol/min/mg
[7]; Human alphaherpesvirus 1, HFF, read-out: EC50 (concentration required to inhibit viral cytopathogenicity by 50%), HSV-1, CPE Inhibition
  EC50: 9.1 µM
[7]; Human alphaherpesvirus 1, HFF, HSV-1, running text, read-out: EC50 against HSV-1
  EC50: 9.1 µM
[8]; Human alphaherpesvirus 3, HFF
  EC50: < 0.08 µM
Aqueous Humor
  hydrolytic rate constant k: 21.8 (±1.2) k × 10^3 min^−1 mg^−1 protein
Cornea homogenate
  hydrolytic rate constant k: 8.1 (±1.2) k × 10^3 min^−1 mg^−1 protein
Iris-Ciliary Body homogenate
  hydrolytic rate constant k: 283.1 (±19.7) k × 10^3 min^−1 mg^−1 protein
Lens homogenate
  hydrolytic rate constant k: 10.1 (±0.3) k × 10^3 min^−1 mg^−1 protein
Vitreous Humor
  hydrolytic rate constant k: 7.1 (±0.9) k × 10^3 min^−1 mg^−1 protein

## CC(C)C(N)C(=O)NC(C(=O)OCCOCn1cnc2c(=O)[nH]c(N)nc21)C(C)C (stereo not drawn) [Val-Val-ACV, Val-Valacyclovir]
[1]; [9]
  first order hydrolytic rate constant k: 0.0062 k × 10^3 min^−1
[1]; [10]
  first order hydrolytic rate constant k: 0.0051 k × 10^3 min^−1
[1]; pH 5.6, concluded from rate constants
  stability as an ophthalmic solution: stable for two years
[1]; pH 7.4
  first order hydrolytic rate constant k: 0.107 k × 10^3 min^−1
[1]; pH 9.0
  first order hydrolytic rate constant k: 0.24 k × 10^3 min^−1
[2]; 0.25 mM
  percent survival: 86.3%
[2]; 0.5 mM
  percent survival: 85.8%
[2]; 1 mM
  percent survival: 87.0%
[2]; 2 mM
  percent survival: 87.0%
[2]; 5 mM
  % viable cells: 90.1±4.6%
  percent survival: 99.3%
[2]; 10 mM
  percent survival: 54.03%
[3]
  Papp (% Control) of [3H] Val-ACV: 18.6 (±8.9) % Control
[4]
  10^2 × kobs: 2.14 ± 0.44 min^−1mg^−1 protein
[4]; human
  t1/2: 33.2 ± 6.9 min
[5]
  EC50: 22.7 µM
[6]
  Vmax of Gly-Sar uptake in presence of the drug: 0.099 ± 0.10 µmol/min/mg
[6]; read-out: IC50 of inhibition of [3H] Gly-Sar uptake
  IC50: 3460 ± 210 µM
[6]; read-out: Ki
  Ki: 1940 µM and 1890 µM and 2510 µM
[7]; read-out: EC50 against HSV-1
  EC50: 6.14 µM
[8]
  EC50: 0.09 µM
rabbit, tissue homogenate
  t1/2: 84 min
